# According to ChEMBL document CHEMBL4359906, “Design and synthesis of new N-terminal fatty acid modified-antimicrobial peptide analogues with potent in vitro biological activity” (Eur J Med Chem, 2019):
# The source made the active and inactive calls. No cut-off for these calls is given here.
# Tests used:
# [1] = Selectivity index, ratio of MHC10 for human RBC to geometric mean of peptide MIC for gram positive bacteria; format: toxicity; details: human red blood cells, read-out: Selectivity Index
# Escherichia coli [2] = assay: Antibacterial activity against Escherichia coli ATCC 25922 after 18 hrs in presence of NaCl by CLSI based broth microdilution method (reference value: 16 microM); format: functional; details: ATCC 25922, 18 h
# Escherichia coli [3] = assay: Antibacterial activity against Escherichia coli ATCC 25922 after 18 hrs in presence of KCl by CLSI based broth microdilution method (reference value: 16 microM); format: functional; details: ATCC 25922, 18 h
# Escherichia coli [4] = assay: Antibacterial activity against Escherichia coli ATCC 25922 after 18 hrs in presence of MgCl2 by CLSI based broth microdilution method (reference value: 16 microM); format: functional; details: ATCC 25922, 18 h
# Escherichia coli [5] = assay: Antibacterial activity against Escherichia coli ATCC 25922 after 18 hrs in presence of FeCl3 by CLSI based broth microdilution method (reference value: 16 microM); format: functional; details: ATCC 25922, 18 h
# Staphylococcus aureus [6] = assay: Antibacterial activity against Staphylococcus aureus ATCC 25923 after 18 hrs in presence of KCl by CLSI based broth microdilution method (reference value: 4 microM); format: functional; details: ATCC 25923, 18 h
# Staphylococcus aureus [7] = assay: Antibacterial activity against Staphylococcus aureus ATCC 25923 after 18 hrs in presence of FeCl3 by CLSI based broth microdilution method (reference value: 4 microM); format: functional; details: ATCC 25923, 18 h
# Pseudomonas aeruginosa = assay: Antibiofilm activity against Pseudomonas aeruginosa ATCC 27853 after 24 hrs by crystal violet staining based assay; format: functional, organism-based
# Staphylococcus aureus [8] = assay: Antibiofilm activity against Staphylococcus aureus ATCC 25923 at 2 times of MIC after 24 hrs by crystal violet staining based assay; format: functional, organism-based
# Escherichia coli [9] = assay: Antibiofilm activity against Escherichia coli ATCC 25922 assessed as reduction in biofilm inhibition at 0.5 to 1 times of MIC after 24 hrs by crystal violet staining based assay; format: functional, organism-based
# Escherichia coli [10] = assay: Antimicrobial activity against Escherichia coli ATCC 25922 at 1 mM preincubated for 6 hrs in presence of 2 ug/ml chymotrypsin and measured after 18 hrs by microplate reader analysis; format: functional, organism-based
# Escherichia coli [11] = assay: Antimicrobial activity against Escherichia coli ATCC 25922 preincubated for 1 hr in presence of 10% mouse serum and measured after 18 hrs by CLSI-based broth microdilution assay (reference value: 16 microM); format: functional
# Escherichia coli [12] = assay: Antimicrobial activity against Escherichia coli ATCC 25922 preincubated for 6 hrs in presence of 10% mouse serum and measured after 18 hrs by CLSI-based broth microdilution assay (reference value: 16 microM); format: functional
# Escherichia coli [13] = assay: Ratio of MIC for Escherichia coli ATCC 25922 preincubated for 6 hrs in presence of 10% mouse serum and measured after 18 hrs to MIC for antibacterial activity against Escherichia coli ATCC 25922 after 18 hrs; format: functional
# Escherichia coli [14] = assay: Disruption of membrane integrity in Escherichia coli ATCC 25922 assessed as membrane damage by measuring PI fluorescence incubated for 1 hr by PI dye based flow cytometric analysis; format: functional, organism-based
# Escherichia coli [15] = assay: Ratio of antibacterial activity against Escherichia coli ATCC 25922 in presence of KCl to antibacterial activity against Escherichia coli ATCC 25922; format: functional
# [16] = Hemolytic activity in human RBC at 256 uM measured after 1 hr by microplate reader analysis relative to control; format: ADME, cell-based, Erythrocyte; details: human red blood cells (erythrocytes), read-out: Activity
# Escherichia coli [17] = assay: Antibacterial activity against Escherichia coli ATCC 25922 after 18 hrs in presence of FeCl3 by CLSI based broth microdilution method (reference value: 4 microM); format: functional; details: ATCC 25922, 18 h
# Escherichia coli [18] = assay: Antibiofilm activity against Escherichia coli ATCC 25922 assessed as reduction in biofilm inhibition at MIC after 24 hrs by crystal violet staining based assay relative to control; format: functional
# Escherichia coli [19] = assay: Antimicrobial activity against Escherichia coli ATCC 25922 preincubated for 1 hr in presence of 10% mouse serum and measured after 18 hrs by CLSI-based broth microdilution assay (reference value: 4 microM); format: functional
# Staphylococcus aureus [20] = assay: Antibiofilm activity against Staphylococcus aureus ATCC 25923 at 1 to 2 times of MIC after 24 hrs by crystal violet staining based assay; format: functional, organism-based
# [21] = Cytotoxicity against mouse RAW264.7 cells assessed as cell proliferation at 64 uM after 1 hr by MTT assay relative to control; format: cell-based; details: read-out: Activity
# DNA [22] = assay: Binding affinity to Escherichia coli ATCC 25922 genomic DNA at 0.5 x MIC after 30 mins by agarose gel electrophoresis; format: nucleic-acid assay
# Escherichia coli [23] = assay: Antibacterial activity against Escherichia coli ATCC 25922 after 18 hrs in presence of MgCl2 by CLSI based broth microdilution method (reference value: 64 microM); format: functional; details: ATCC 25922, 18 h
# Staphylococcus aureus [24] = assay: Antibacterial activity against Staphylococcus aureus ATCC 25923 after 18 hrs in presence of FeCl3 by CLSI based broth microdilution method (reference value: 32 microM); format: functional; details: ATCC 25923, 18 h
# DNA [25] = assay: Binding affinity to Escherichia coli ATCC 25922 genomic DNA at 4 x MIC after 30 mins by agarose gel electrophoresis; format: nucleic-acid assay
# [26] = Cytotoxicity against mouse RAW264.7 cells assessed as cell proliferation at 4 uM after 1 hr by MTT assay relative to control; format: cell-based; details: read-out: Activity
# Escherichia coli [27] = assay: Antibacterial activity against Escherichia coli ATCC 25922 after 18 hrs in presence of NaCl by CLSI based broth microdilution method (reference value: 8 microM); format: functional; details: ATCC 25922, 18 h
# Escherichia coli [28] = assay: Antibacterial activity against Escherichia coli ATCC 25922 after 18 hrs in presence of KCl by CLSI based broth microdilution method (reference value: 8 microM); format: functional; details: ATCC 25922, 18 h
# Escherichia coli [29] = assay: Antibacterial activity against Escherichia coli ATCC 25922 after 18 hrs in presence of MgCl2 by CLSI based broth microdilution method (reference value: 8 microM); format: functional; details: ATCC 25922, 18 h
# Escherichia coli [30] = assay: Antibacterial activity against Escherichia coli ATCC 25922 after 18 hrs in presence of FeCl3 by CLSI based broth microdilution method (reference value: 8 microM); format: functional; details: ATCC 25922, 18 h
# Staphylococcus aureus [31] = assay: Antibacterial activity against Staphylococcus aureus ATCC 25923 after 18 hrs in presence of NaCl by CLSI based broth microdilution method (reference value: 8 microM); format: functional; details: ATCC 25923, 18 h
# Staphylococcus aureus [32] = assay: Antibacterial activity against Staphylococcus aureus ATCC 25923 after 18 hrs in presence of KCl by CLSI based broth microdilution method (reference value: 8 microM); format: functional; details: ATCC 25923, 18 h
# Staphylococcus aureus [33] = assay: Antibacterial activity against Staphylococcus aureus ATCC 25923 after 18 hrs in presence of MgCl2 by CLSI based broth microdilution method (reference value: 8 microM); format: functional; details: ATCC 25923, 18 h
# Staphylococcus aureus [34] = assay: Antibacterial activity against Staphylococcus aureus ATCC 25923 after 18 hrs in presence of FeCl3 by CLSI based broth microdilution method (reference value: 8 microM); format: functional; details: ATCC 25923, 18 h
# Escherichia coli [35] = assay: Antimicrobial activity against Escherichia coli ATCC 25922 preincubated for 1 hr in presence of 10% mouse serum and measured after 18 hrs by CLSI-based broth microdilution assay (reference value: 8 microM); format: functional
# Escherichia coli [36] = assay: Antimicrobial activity against Escherichia coli ATCC 25922 preincubated for 6 hrs in presence of 10% mouse serum and measured after 18 hrs by CLSI-based broth microdilution assay (reference value: 8 microM); format: functional
# DNA [37] = assay: Binding affinity to Escherichia coli ATCC 25922 genomic DNA at 1 x MIC after 30 mins by agarose gel electrophoresis; format: nucleic-acid assay
Compound,selectivity ratio [1],MIC (Escherichia coli [2]),MIC (Escherichia coli [3]),MIC (Escherichia coli [4]),MIC (Escherichia coli [5]),inhibition (Pseudomonas aeruginosa),inhibition (Staphylococcus aureus [8]),inhibition (Escherichia coli [9]),Activity (Escherichia coli [10]),MIC (Escherichia coli [11]),MIC (Escherichia coli [12]),Ratio (Escherichia coli [13]),Activity (Escherichia coli [14]),Ratio (Escherichia coli [15]),inhibition (INH) (Escherichia coli [18]),inhibition (Staphylococcus aureus [20]),"viability at 1 h, 64 µM [21]",also measured
CCCCCCCCCCCC(=O)NCC(=O)N[C@@H](CC(C)C)C(=O)N[C@@H](CC(C)C)C(=O)N[C@H](CCCCN)C(=O)N[C@@H](CCCNC(=N)N)C(=O)N[C@H](C(=O)N[C@H](CCCCN)C(=O)N[C@H](C(=O)N[C@@H](CC(C)C)C(=O)N[C@@H](CC(C)C)C(N)=O)[C@@H](C)O)[C@@H](C)CC,2.18,16 µM,4 µM,16 µM,4 µM,Dose-dependent effect,Active,Active,Active,16 µM,32 µM,2,Dose-dependent effect,2 - 4,,,,MIC (Staphylococcus aureus [6]): 4 µM; MIC (Staphylococcus aureus [7]): 8 µM
CCCCCCCC(=O)NC(Cc1cn(CCCC[C@H](NC(C)=O)C(=O)NCC(=O)N[C@@H](CC(C)C)C(=O)N[C@@H](CC(C)C)C(=O)N[C@H](CCCCN)C(=O)N[C@@H](CCCNC(=N)N)C(=O)N[C@H](C(=O)N[C@H](CCCCN)C(=O)N[C@H](C(=O)N[C@@H](CC(C)C)C(=O)N[C@@H](CC(C)C)C(N)=O)[C@@H](C)O)[C@@H](C)CC)nn1)C(=O)NCC(=O)N[C@@H](CC(C)C)C(=O)N[C@@H](CC(C)C)C(=O)N[C@H](CCCCN)C(=O)N[C@@H](CCCNC(=N)N)C(=O)N[C@H](C(=O)N[C@H](CCCCN)C(=O)N[C@H](C(=O)N[C@@H](CC(C)C)C(=O)N[C@@H](CC(C)C)C(N)=O)[C@@H](C)O)[C@@H](C)CC (stereo not given in full),11.3,,,,,Dose-dependent effect,,,Active,,,4,Dose-dependent effect,2 - 4,>50%,Active,,"hemolysis at 1 h, 256 µM [16]: < 5%; MIC (Escherichia coli [17]): 4 µM; MIC (Escherichia coli [19]): 8 µM"
CCCC(=O)NC(Cc1cn(CCCC[C@H](NC(C)=O)C(=O)NCC(=O)N[C@@H](CC(C)C)C(=O)N[C@@H](CC(C)C)C(=O)N[C@H](CCCCN)C(=O)N[C@@H](CCCNC(=N)N)C(=O)N[C@H](C(=O)N[C@H](CCCCN)C(=O)N[C@H](C(=O)N[C@@H](CC(C)C)C(=O)N[C@@H](CC(C)C)C(N)=O)[C@@H](C)O)[C@@H](C)CC)nn1)C(=O)NCC(=O)N[C@@H](CC(C)C)C(=O)N[C@@H](CC(C)C)C(=O)N[C@H](CCCCN)C(=O)N[C@@H](CCCNC(=N)N)C(=O)N[C@H](C(=O)N[C@H](CCCCN)C(=O)N[C@H](C(=O)N[C@@H](CC(C)C)C(=O)N[C@@H](CC(C)C)C(N)=O)[C@@H](C)O)[C@@H](C)CC (stereo not given in full),5.91,128 µM,16 µM,32 µM,16 µM,Dose-dependent effect,,,Active,16 µM,16 µM,1,Dose-dependent effect,2 - 4,>50%,Active,> 80%,Activity (DNA [22]): inactive
CCCCCCCC(=O)NCC(=O)N[C@@H](CC(C)C)C(=O)N[C@@H](CC(C)C)C(=O)N[C@H](CCCCN)C(=O)N[C@@H](CCCNC(=N)N)C(=O)N[C@H](C(=O)N[C@H](CCCCN)C(=O)N[C@H](C(=O)N[C@@H](CC(C)C)C(=O)N[C@@H](CC(C)C)C(N)=O)[C@@H](C)O)[C@@H](C)CC,15.4,,,,,Dose-dependent effect,Active,Active,Active,,,1,Dose-dependent effect,2 - 4,,,> 80%,MIC (Escherichia coli [23]): 64 µM; MIC (Staphylococcus aureus [24]): 32 µM; Activity (DNA [25]): Active
CCCCCCCCCCCC(=O)NC(Cc1cn(CCCC[C@H](NC(C)=O)C(=O)NCC(=O)N[C@@H](CC(C)C)C(=O)N[C@@H](CC(C)C)C(=O)N[C@H](CCCCN)C(=O)N[C@@H](CCCNC(=N)N)C(=O)N[C@H](C(=O)N[C@H](CCCCN)C(=O)N[C@H](C(=O)N[C@@H](CC(C)C)C(=O)N[C@@H](CC(C)C)C(N)=O)[C@@H](C)O)[C@@H](C)CC)nn1)C(=O)NCC(=O)N[C@@H](CC(C)C)C(=O)N[C@@H](CC(C)C)C(=O)N[C@H](CCCCN)C(=O)N[C@@H](CCCNC(=N)N)C(=O)N[C@H](C(=O)N[C@H](CCCCN)C(=O)N[C@H](C(=O)N[C@@H](CC(C)C)C(=O)N[C@@H](CC(C)C)C(N)=O)[C@@H](C)O)[C@@H](C)CC (stereo not given in full),1.85,,,,,Dose-dependent effect,,,Active,,,4,Dose-dependent effect,2 - 4,>50%,Active,,"viability at 1 h, 4 µM [26]: < 80%; MIC (Escherichia coli [27]): 16 µM; MIC (Escherichia coli [28]): 16 µM; MIC (Escherichia coli [29]): 32 µM; MIC (Escherichia coli [30]): 4 µM; MIC (Staphylococcus aureus [31]): 8 µM; MIC (Staphylococcus aureus [32]): 16 µM; MIC (Staphylococcus aureus [33]): 8 µM; MIC (Staphylococcus aureus [34]): 16 µM; MIC (Escherichia coli [35]): 16 µM; MIC (Escherichia coli [36]): 32 µM; Activity (DNA [37]): Dose-dependent effect"
